Molecules are shown by their SMILES. Some results are limits rather than exact numbers.

In patent US20120022054A1, “NOVEL SUBSTITUTED ARYL DERIVATIVES, THEIR PROCESS OF PREPARATION AND THEIR THERAPEUTICAL USES AS ANTI-HIV AGENTS” (priority 2008, published 2012) one finds EC50 data, which are given here for 37 molecules.

The test system of one experiment is NL4-3 strain of HIV-1. The experiment in a line: Multiple cycle infection assay of CAp24 antigen production. Type of experiment: cell-based. The settings on record: Human immunodeficiency virus 1, NL43, SUP-T1, 96 h, multiple cycle infection with NL4-3 virus, SupT1, MT4 or PBMC, MOI 0.01, day 4 and day −6 post-infection; threshold below 5 μM; read-out: EC50 for antiviral activity (50% inhibition of CA p24 production).

Experiment [1] concerns Env-deleted NL4-3 vector virus pseudotyped with the VSV g envelope. In words: microbe, parasite or virus in culture. It counts as cell-based, HIV-1. The conditions noted are these: Vesicular stomatitis virus, NL43, SUP-T1, 48 h, read-out: EC50 for antiviral activity (50% inhibition of luciferase activity).

The EC50 is the concentration at which the effect is half-maximal. Take `CCOC(=O)c1cc(F)ccc1SCCCC(=O)N(C)c1cccc(F)c1` [Example 193, Ethyl 5-fluoro-2-({4-[(3-fluorophenyl)(methyl)amino]-4-oxobutyl}thio)benzoate]: the concentration giving a half-maximal response (EC50) (in the experiment on NL4-3 strain of HIV-1; in experiment [1]) was < 5 µM throughout.

As to `COc1ccccc1CN(C)C(=O)CCCCc1ccc(O)cc1` [Example 19, 5-(4-Hydroxyphenyl)-N-(2-methoxybenzyl)-N-methylpentanamide], the EC50 (with NL4-3 strain of HIV-1; in experiment [1]) was < 5 µM in each case.

Turning to `CN(Cc1cccc2c1OCC2)C(=O)CCCSc1ccc(O)cc1` [Example 22, N-(2,3-Dihydro-1-benzofuran-7-ylmethyl)-4-[(4-hydroxyphenyl)thio]-N-methylbutanamide], the EC50 (in the experiment with NL4-3 strain of HIV-1; in experiment [1]) was < 5 µM throughout.

Take `COc1ccc(SCCCC(=O)N(C)Cc2cc(F)ccc2OC(C)C)cc1` [Example 117, N-(5-fluoro-2-isopropoxybenzyl)-4-[(4-methoxyphenyl)thio]-N-methylbutanamide]: the EC50 (in the experiment on NL4-3 strain of HIV-1; in experiment [1]) was < 5 µM each time.

`COc1cccc(CN(C)C(=O)CCCSc2ccc(O)cc2)c1OC` [Example 29, N-(2,3-dimethoxybenzyl)-4-[(4-hydroxyphenyl)thio]-N-methylbutanamide]: the EC50 (in the experiment on NL4-3 strain of HIV-1; in experiment [1]) was < 5 µM throughout.

Consider `COc1ccc(SCCCC(=O)N(C)Cc2cc(Cl)ccc2OC)cc1` [Example 115, N-(5-chloro-2-methoxybenzyl)-4-[(4-methoxyphenyl)thio]-N-methylbutanamide], for which the EC50 (with NL4-3 strain of HIV-1; in experiment [1]) was < 5 µM throughout.

As for `COc1ccccc1CN(C)C(=O)CCCSc1ccc(NS(C)(=O)=O)cc1` [Example 93, N-(2-Methoxybenzyl)-N-methyl-4-{[4-(methylsulfonylamino)phenyl]thio}butanamide], the EC50 (in the experiment with NL4-3 strain of HIV-1; in experiment [1]) was < 5 µM throughout.

With `C=CCOc1ccc(Cl)cc1CN(C)C(=O)CCCSc1ccc(F)cc1` [Example 101, N-[2-(allyloxy)-5-chlorobenzyl]-4-[(4-fluorophenyl)thio]-N-methylbutanamide], the EC50 (in the experiment on NL4-3 strain of HIV-1; in experiment [1]) was < 5 µM each time.

On to `COc1ccc2c(ccn2CCCC(=O)N(C)Cc2cc(F)ccc2OC)c1` [Example 109, N-(5-fluoro-2-methoxybenzyl)-4-(5-methoxy-1H-indol-1-yl)-N-methylbutanamide], for which the EC50 (with NL4-3 strain of HIV-1; in experiment [1]) was < 5 µM each time.

Take `CCOC(=O)N1CCN(c2ccccc2CN(C)C(=O)CCCSc2ccc(O)cc2)CC1` [Example 47, Ethyl 4-[2-({4-[(4-hydroxyphenyl)thio]butanoyl}methylamino)methylphenyl]-piperazine-1-carboxylate]: the 50% effective concentration (EC50) (in the experiment on NL4-3 strain of HIV-1; in experiment [1]) was < 5 µM throughout.

As to `COc1ccc(C)cc1CN(C)C(=O)CCCn1ccc2ccc(F)cc21` [Example 121, 4-(6-fluoro-1H-indol-1-yl)-N-(2-methoxy-5-methylbenzyl)-N-methylbutanamide], the EC50 (with NL4-3 strain of HIV-1; in experiment [1]) was < 5 µM each time.

On to `CN(Cc1ccccc1Cl)C(=O)CCCSc1ccc(O)cc1` [Example 3, N-(2-Chlorobenzyl)-4-[(4-hydroxyphenyl)thio]-N-methylbutanamide], for which the EC50 (in the experiment on NL4-3 strain of HIV-1; in experiment [1]) was < 5 µM in each case.

As to `Cc1ccccc1CN(C)C(=O)CCCSc1ccc(O)cc1` [Example 37, 4-[(4-Hydroxyphenyl)thio]-N-methyl-N-(2-methylbenzyl)butanamide], the EC50 (in the experiment with NL4-3 strain of HIV-1; in experiment [1]) was < 5 µM throughout.

As to `COc1ccccc1CN(C)C(=O)CCCSc1ccc2ccccc2n1` [Example 39, N-(2-Methoxybenzyl)-N-methyl-4-(quinolin-2-ylthio)butanamide], the EC50 (with NL4-3 strain of HIV-1; in experiment [1]) was < 5 µM each time.

On to `COc1ccccc1CN(C)C(=O)CCCSc1ccc2ccccc2c1` [Example 17, N-(2-Methoxybenzyl)-N-methyl-4-(2-naphthylthio)butanamide], for which the concentration giving a half-maximal response (EC50) (with NL4-3 strain of HIV-1; in experiment [1]) was < 5 µM in each case.

Take `CN(C(=O)CCCSc1ccc(F)cc1)c1cccc2cnccc12` [Example 131, 4-[(4-fluorophenyl)thio]-N-isoquinolin-5-yl-N-methylbutanamide]: the EC50 (in the experiment with NL4-3 strain of HIV-1; in experiment [1]) was < 5 µM in each case.

In the case of `COc1ccccc1N(C)C(=O)CCCSc1ccc(F)cc1` [Example 126, 4-[(4-Fluorophenyl)thio]-N-(2-methoxyphenyl)-N-methylbutanamide], the EC50 (with NL4-3 strain of HIV-1; in experiment [1]) was < 5 µM each time.

As to `CN(Cc1ccccc1N1CCN(c2ccc(C(F)(F)F)cn2)CC1)C(=O)CCCNCc1ccc(F)cc1` [Example 80, 4-[(4-Fluorophenyl)methylamino]-N-methyl-N-(2-{4-[5-(trifluoromethyl)pyridin-2-yl]piperazin-1-yl}benzyl)butanamide], the EC50 (in the experiment with NL4-3 strain of HIV-1; in experiment [1]) was < 5 µM each time.

With `CN(Cc1ccccc1Cl)C(=O)CCCSc1ccc(F)cc1` [Example 14, N-(2-Chlorobenzyl)-4-[(4-fluorophenyl)thio]-N-methylbutanamide], the EC50 (in the experiment with NL4-3 strain of HIV-1; in experiment [1]) was < 5 µM each time.

With `CC(C)Oc1ccccc1CN(C)C(=O)CCCSc1ccc(F)cc1` [Example 50, 4-[(4-Fluorophenyl)thio]-N-(2-isopropoxybenzyl)-N-methylbutanamide], the EC50 (in the experiment with NL4-3 strain of HIV-1; in experiment [1]) was < 5 µM each time.

On to `COc1ccc(F)cc1N(C)C(=O)CCCSc1ccc(F)cc1` [Example 102, N-(5-fluoro-2-methoxyphenyl)-4-[(4-fluorophenyl)thio]-N-methylbutanamide], for which the EC50 (in the experiment on NL4-3 strain of HIV-1; in experiment [1]) was < 5 µM throughout.

Regarding `CN(C(=O)CCCSc1ccc(O)cc1)C(c1ccccc1)c1ccccc1` [Example 10, N-Benzhydryl-4-[(4-hydroxyphenyl)thio]-N-methylbutanamide], the half-maximal effective concentration (EC50) (in the experiment on NL4-3 strain of HIV-1; in experiment [1]) was < 5 µM each time.

For the molecule `CCOc1ccccc1CN(C)C(=O)CCCSc1ccc(O)cc1` [Example 30, N-(2-ethoxybenzyl)-4-[(4-hydroxyphenyl)thio]-N-methylbutanamide], the EC50 (in the experiment with NL4-3 strain of HIV-1; in experiment [1]) was < 5 µM each time.

As for `CC(C)Oc1ccccc1CN(C)C(=O)CCCCc1ccc(O)cc1` [Example 59, 5-(4-Hydroxyphenyl)-N-(2-isopropoxybenzyl)-N-methylpentanamide], the EC50 (in the experiment with NL4-3 strain of HIV-1; in experiment [1]) was < 5 µM in each case.

`COc1c(Cl)cc(Cl)cc1CN(C)C(=O)CCCSc1ccc(O)cc1` [Example 74, N-(3,5-Dichloro-2-methoxybenzyl)-4-[(4-hydroxyphenyl)thio]-N-methylbutanamide]: the EC50 (in the experiment with NL4-3 strain of HIV-1; in experiment [1]) was < 5 µM throughout.

For the molecule `COc1ccccc1CN(C)C(=O)CCCSc1ccc(O)cc1` [Example 35, 4-[(4-Hydroxyphenyl)thio]-N-(2-methoxybenzyl)-N-methylbutanamide], the EC50 (with NL4-3 strain of HIV-1; in experiment [1]) was < 5 µM each time.

`COc1ccccc1CN(C)C(=O)CCCSc1ccc(NC(C)=O)cc1` [Example 20, 4-{[4-(Acetylamino)phenyl]thio}-N-(2-methoxybenzyl)-N-methylbutanamide]: the EC50 (in the experiment with NL4-3 strain of HIV-1; in experiment [1]) was < 5 µM throughout.

For the molecule `CN(Cc1c(F)cccc1Cl)C(=O)CCCSc1ccc(O)cc1` [Example 31, N-(2-chloro-6-fluorobenzyl)-4-[(4-hydroxyphenyl)thio]-N-methylbutanamide], the EC50 (in the experiment with NL4-3 strain of HIV-1; in experiment [1]) was < 5 µM throughout.

`COc1ccc(F)cc1CN(C)C(=O)CCCSc1ccc(CO)cc1` [Example 148, N-(5-fluoro-2-methoxybenzyl)-4-{[4-(hydroxymethyl)phenyl]thio}-N-methylbutanamide]: the EC50 (with NL4-3 strain of HIV-1; in experiment [1]) was < 5 µM in each case.

Consider `COc1ccc(SCCCC(=O)N(C)Cc2cc(F)ccc2OC)cc1` [Example 87, N-(5-Fluoro-2-methoxybenzyl)-4-[(4-methoxyphenyl)thio]-N-methylbutanamide], for which the EC50 (with NL4-3 strain of HIV-1; in experiment [1]) was < 5 µM each time.

For the molecule `COc1ccc(SCCCC(=O)N(C)Cc2ccccc2OC)cc1` [Example 42, N-(2-Methoxybenzyl)-4-[(4-methoxyphenyl)thio]-N-methylbutanamide], the concentration for a half-maximal effect (EC50) (in the experiment with NL4-3 strain of HIV-1; in experiment [1]) was < 5 µM each time.

Consider `CN(Cc1cccc(Cl)c1Cl)C(=O)CCCSc1ccc(O)cc1` [Example 34, N-(2,3-Dichlorobenzyl)-4-[(4-hydroxyphenyl)thio]-N-methylbutanamide], for which the EC50 (in the experiment with NL4-3 strain of HIV-1; in experiment [1]) was < 5 µM each time.

Take `COc1cc(C)ccc1CN(C)C(=O)CCCSc1ccc(O)cc1` [Example 75, 4-[(4-Hydroxyphenyl)thio]-N-(2-methoxy-4-methylbenzyl)-N-methylbutanamide]: the EC50 (in the experiment with NL4-3 strain of HIV-1; in experiment [1]) was < 5 µM in each case.

As to `COc1ccc([S+]([O-])CCCC(=O)N(C)c2nccc3ccccc23)cc1` (centres unmarked) [Example 133, N-isoquinolin-1-yl-4-[(4-methoxyphenyl)sulfinyl]-N-methylbutanamide], the EC50 (in the experiment with NL4-3 strain of HIV-1; in experiment [1]) was < 5 µM throughout.

As for `COc1ccc(-n2cccn2)c(CN(C)C(=O)CCCSc2ccc(F)cc2)c1` [Example 98, 4-[(4-fluorophenyl)thio]-N-[5-methoxy-2-(pyrazol-1-yl)benzyl]-N-methylbutanamide], the EC50 (in the experiment with NL4-3 strain of HIV-1; in experiment [1]) was < 5 µM in each case.

On to `COc1ccc(Br)cc1CN(C)C(=O)CCCSc1ccc(F)cc1` [Example 92, N-(5-Bromo-2-methoxybenzyl)-4-[(4-fluorophenyl)thio]-N-methylbutanamide], for which the EC50 (in the experiment with NL4-3 strain of HIV-1; in experiment [1]) was < 5 µM in each case.

`COc1ccc(F)cc1CN(C)C(=O)CCCSc1ccc(Cl)cc1` [Example 112, 4-[(4-chlorophenyl)thio]-N-(5-fluoro-2-methoxybenzyl)-N-methylbutanamide]: the EC50 (with NL4-3 strain of HIV-1; in experiment [1]) was < 5 µM in each case.
